Assay [1] has as its system HUVEC (Human Umbilical Vein Endothelial Cells). Nature of the assay: MTT cytotoxicity assay, HUVEC normal cells. The conditions noted are these: no irradiation, mean ± SD of three experiments. Type of assay: cell-based. How it is done:
(§1) Cell Lines. The following in vitro human cancer cell lines were used: HCT-116 (Human colorectal cells), human KB (human nasopharyngeal carcinoma cells), MGC-803 (human lung adenocarcinoma cell line), HUVEC (Human Umbilical Vein Endothelial Cells). The cell lines (HCT-116, KB, MGC-803 and HUVEC) were purchased from the Cell Resource Center of Shanghai Institutes for Biological Sciences, the Academy of Sciences of China.
(§2) Cell Culture. HCT-116, human KB, MGC-803 and HUVEC cells were cultured in Dulbecco Modified Eagle Medium (DMEM; HyClone, Los Angeles, CA, USA), containing 4.0 mM L-Glutamine and 4500 mg/L Glucose, supplemented with 10% (v/v) foetalbovine serum (FBS; HyClone). The cell culturemedia was supplemented with penicillin/streptomycin at 100 Units/mL as adherent monolayers. Cell cultures were kept in a humidified incubator with 5% CO2 at 37 °C. Stock solutions were prepared in dimethyl sulfoxide (DMSO) and further dilutions were made with fresh culture medium. The concentration of DMSO in the final culture medium was 1%, which had no effect on the cell viability.
(§3) MTT Assay. Chemosensitivity was assessed using 3-(4,5-dimethylthiazol-2-yl)-2,5-diphenyl tetrazolium bromide (MTT) assay. Briefly, exponentially growing HCT-116 (3000–4000 cells/well), human KB (2000–3000 cells/well) and MGC 803 (2000–3000 cells/well) were seeded into 96-well plates and treated with indicated concentrations of samples for 48 h, and then […] of MTT (10 mg/mL) was added. After incubation for 4 h at 37 °C, the purple formazan crystals (i.e., a reduced form of MTT) generated from viable cells were dissolved by adding 100 μL DMSO in each well. The plates were swirled gently for 10 min to dissolve the precipitate, and quantified by measuring the optical density (OD) of the plates at a wavelength of 490 nm on plate reader (TECAN infinite M1000). Each concentration was repeated in three wells and the same experimental conditions were provided for all compounds and MTT analysis was repeated three times for each cell line.
(In general: Tetrazolium dyes change colour on reduction, which living cells bring about.)

A further assay relates to CT-DNA. Nature of the assay: Spectrofluorimetric titration with CT-DNA (Stern-Volmer and binding constants). The arrangement: species or system calf. The settings on record: from F0/F-1 vs [DNA]; Tris-HCl buffer pH 7.2. As to the method:
The DNA binding properties of compounds 8a–8j were evaluated based on their affinity or interaction with CT-DNA, measured with fluorescence spectrometric titration.
The calibration curve for determination of DNA was constructed by adding different proportion of DNA to a 2.0 × 10^−3 M compound 8j solution (pH = 7.2 Tris-HCl buffer). […] [Q] is the concentration of quencher. KSV is the Stern-Volmer constant and KQ is the bimolecular quenching rate constant. τ0 is the lifetime of the fluorophore in the absence of quencher and for most biomolecules τ0 is about 10^−8 s. The Stern-Volmer constant, KSV, for compound 8j has been determined from the plot of F0/F-1 vs. [DNA] (see Figure 2) and found to be 5.11 × 10^2 M^−1.
When small molecules binding independently to a set of equivalent sites on a macromolecule, the equilibrium between free and bound molecules is given by the equation [28]: (2) lg (F0/F-1) = lgKb + nlg[Q] where Kb and n are the binding constant and the number of binding sites, respectively, which could be got from the curve of lg(F0/F-1) vs. lg[Q]. The plot of lg(F0/F-1) vs. lg[DNA] has been shown in Figure 3 for compound 8j and indicates a simple binding process for the compound.
All fluorescence experiments were carried out on a Perkin-Elmer LS50B luminescence spectrometer. Fluorescence spectra were measured at rt using quartz cells of 1cm path. To the solutions of the drugs (2.0 × 10^−3 M) in 2.5 mL Tris-HCl buffer (pH = 7.2) were added aliquots of CT-DNA (2.0 × 10^−3 M) solution containing drugs (2.0 × 10^−3 M) in 2.5 mL Tris-HCl buffer (pH = 7.2). This operation ensured that the concentration of CT-DNA increased gradually from 0 to 360 µM, while the concentrations of drugs were kept constant. The mixing was achieved by stirring for 10min. Then, the corresponding fluorescence spectra were measured (ex 325 nm, ex/em 1.5 nm/1.5 nm). Binding constants were derived from the modified.

The test system of assay [2] is HCT-116 (Human colorectal cells). Put plainly: MTT cytotoxicity assay, HCT-116. It is filed as cell-based. The conditions noted are these: MTT, 48 h, no irradiation, mean ± SD of three experiments. As to the method:
as §1, §2, §3

Assay [3] deals with MGC-803 (human lung adenocarcinoma cell line). Nature of the assay: MTT cytotoxicity assay, MGC-803. Type of assay: cell-based. The conditions noted are these: 48 h, no irradiation, mean ± SD of three experiments. How it is done: as §1, §2, §3
Assay [4] deals with human KB (human nasopharyngeal carcinoma cells). Nature of the assay: MTT cytotoxicity assay, human KB. Type of assay: cell-based. The settings on record: 48 h, no irradiation, mean ± SD of three experiments. As to the method: as §1, §2, §3
A further assay concerns HCT-116 cells. Put plainly: Apoptosis and cell cycle analysis by flow cytometry (PI staining). The settings on record: HCT-116, 48 h at IC50 concentration; untreated cells 35.32%. Type of assay: cell-based, human. As to the method: Compared to the control (untreated cells), changes in the cell cycle distribution of treated HCT-116 cells were evident.
Figure 6 Inhibition of cell cycle progress in HCT-116 cells treated with compounds 8d, 8f, 8c and 8j for 48 h. Cells were fixed with ethanol and stained with PI. Cell cycle distribution was analyzed by flow cytometry. First peak represents sub-G1 peak, which was taken as the fraction of the apoptotic cell population. TEXT PRINTED IN THE PICTURE: 8d: Diploid: 100.00%; Dip G1: 87.24 % at 74.84; Dip G2: 7.42 % at 147.44; Dip S: 5.34 % | 8f: Diploid: 100.00%; Dip G1: 74.25 % at 73.13; Dip G2: 10.86 % at 144.07; Dip S: 14.89 % | 8c: Diploid: 100.00%; Dip G1: 82.72 % at 72.85; Dip G2: 6.28 % at 143.51; Dip S: 11.00% | 8j: Diploid: 100.00%; Dip G1: 15.12 % at 45.10; Dip G2: 52.47 % at 88.84; Dip S: 32.40%; Apoptosis: 4.01 % Mean: 33.84 | Control (−): Diploid: 100.00%; Dip G1: 35.32 % at 52.60; Dip G2: 19.20 % at 103.62; Dip S: 45.84% DOUBTS OF THE COPYIST ABOUT THIS PICTURE: Print is small throughout, so 3, 5, 6, 8 and 9 cannot be told apart with certainty in the values below; best readings are given. / 8d, Dip G1: 87.24 % at 74.84, the 8s uncertain / 8d, Dip S: 5.34, the 5 and 3 uncertain / 8f, Dip G2: 10.86 % at 144.07, the 8 and 6 uncertain / 8f, Dip S: 14.89, the 8 and 9 uncertain / 8c, Dip G1: 82.72 % at 72.85, the 8s and 5 uncertain / 8c, Dip G2: 6.28 % at 143.51, the 6, 8, 3 and 5 uncertain / 8j, Dip G2: 52.47 % at 88.84, the 5 and 8s uncertain / 8j, Apoptosis: 4.01 % Mean: 33.84, the 3s and 8 uncertain / Control (−), Dip G1: 35.32 % at 52.60, the 3s, 5s and 6 uncertain / Control (−), Dip G2: 19.20 % at 103.62, the 9, 3 and 6 uncertain / Control (−), Dip S: 45.84, the 5 and 8 uncertain / Control (−) is an untreated control, not a compound; it is included because results are printed with it. / G2/G1: 1.97 and %CV, printed in every plot, are left out as fit parameter and statistic.
Apoptosis was quantified by assessing the fraction of cells with sub-G1 DNA content by flow cytometry. The cells lines were treated with indicated concentrations of compounds […]. After incubated for 48 h, cells were washed twice with ice-cold PBS, fixed and permeabilized with ice-cold 70% ethanol at −20 °C overnight. The cells were treated with 100 μg/mL RNase A at 37 °C for 30 min after washed with ice-cold PBS, and finally stained with 1 mg/mL propidium iodide (PI) in the dark at 4 °C for 30 min. Analysis was performed with the system software (Cell Quest; BD Biosciences, Franklin Lakes, NJ, USA).
On the technique in general: Flow cytometry measures light scatter and fluorescence of single cells or particles in a stream.

Where [5] appears, read: Homo sapiens, HUVEC, light or radiation study.
[6] abbreviates: Homo sapiens, HCT-116, light or radiation study.
The mark [7] stands for this setting: Homo sapiens, MGC-803, light or radiation study.
The mark [8] stands for this setting: Homo sapiens, light or radiation study.

Molecules are shown by their SMILES. Some results are limits rather than exact numbers.

Nine compounds from paper PMC6331810, “Novel Coumarin-Containing Aminophosphonatesas Antitumor Agent: Synthesis, Cytotoxicity, DNA-Binding and Apoptosis Evaluation” (Molecules, 2015) can be followed below.

The IC50 is the point on the concentration scale where inhibition reaches its midpoint. `Cc1cc(=O)oc2cc(O)ccc12` [Compound 2, 7-Hydroxy-4-methyl-2H-chromen-2-one, reference compound]: the 50% inhibitory concentration (IC50) in assay [1] (setting [5]) is greater than 100 µM; in assay [2] (setting [6]), greater than 100 µM; in assay [3] (setting [7]) it was greater than 100 µM; in assay [4] (setting [8]) it was greater than 50 µM. The “KSV (Stern-Volmer constant)” value with CT-DNA amounted to 442 M⁻¹.

For the compound `O=c1[nH]cc(F)c(=O)[nH]1` [Compound 5-Fu, 5-fluoro-2,4(1H,3H)pyrimidinedione, reference compound], the IC50 in assay [1] (setting [5]) came to 56 ± 3.21 µM; in assay [2] (setting [6]) it was 10.1 ± 2.2 µM; in assay [3] (setting [7]), 15.3 ± 1.96 µM; in assay [4] (setting [8]) it was 1.23 ± 1.09 µM.

Turning to `CCOP(=O)(OCC)C(NC(=O)CCOc1ccc2c(C)cc(=O)oc2c1)c1ccccc1` (stereo not drawn) [Compound 8a, Diethyl(3-(4-methyl-2-oxo-2H-chromen-7-yloxy)propanamido)(phenyl)methylphosphonate], the IC50 in assay [1] is greater than 100 µM; in assay [2], greater than 100 µM; in assay [3], greater than 100 µM; in assay [4], greater than 50 µM. In the assay with CT-DNA, the “KSV (Stern-Volmer constant)” value turned out to be 340 M⁻¹.

In the case of `CCOP(=O)(OCC)C(NC(=O)CCOc1ccc2c(C)cc(=O)oc2c1)c1ccccc1F` (stereo not drawn) [Compound 8b, Diethyl(3-(4-methyl-2-oxo-2H-chromen-7-yloxy)propanamido)(2-fluorophenyl)methylphospho-nate], the IC50 in assay [1] is greater than 100 µM; in assay [2] it was greater than 100 µM; in assay [3] it was greater than 100 µM; in assay [4], greater than 50 µM. Moreover, the “KSV (Stern-Volmer constant)” value in the assay with CT-DNA is 299 M⁻¹.

On to `CCOP(=O)(OCC)C(NC(=O)CCOc1ccc2c(C)cc(=O)oc2c1)c1ccccc1Cl` (stereo not drawn) [Compound 8c, Diethyl(3-(4-methyl-2-oxo-2H-chromen-7-yloxy)propanamido)(2-chlorophenyl)methylphospho-nate], for which the IC50 was greater than 100 µM in assay [1], 88.7 ± 1.69 µM in assay [2], 79.4 ± 3.82 µM in assay [3] and 33.4 ± 1.2 µM in assay [4]. Moreover, in the assay on CT-DNA, the “KSV (Stern-Volmer constant)” value turned out to be 481 M⁻¹. This compound came in with a G1-phase population in the assay with HCT-116 cells of 82.72%.

Turning to `CCOP(=O)(OCC)C(NC(=O)CCOc1ccc2c(C)cc(=O)oc2c1)c1ccc(Cl)cc1` (stereo not drawn) [Compound 8d, Diethyl(3-(4-methyl-2-oxo-2H-chromen-7-yloxy)propanamido)(4-chlorophenyl)methylphospho-nate], the IC50 in assay [1] was greater than 100 µM; in assay [2], 86.2 ± 1.86 µM; in assay [3], 76.9 ± 3.89 µM; in assay [4], 7.8 ± 5.36 µM. In the assay on CT-DNA, the “KSV (Stern-Volmer constant)” value worked out at 429 M⁻¹. The compound also came in with a G1-phase population in the assay on HCT-116 cells of 87.24%.

With `CCOP(=O)(OCC)C(NC(=O)CCOc1ccc2c(C)cc(=O)oc2c1)c1ccccc1Br` (stereo not drawn) [Compound 8e, Diethyl(3-(4-methyl-2-oxo-2H-chromen-7-yloxy)propanamido)(2-bromophenyl)methylphospho-nate], the IC50 in assay [1] was greater than 100 µM; in assay [2] it was 90.5 ± 1.09 µM; in assay [3] it was 67.5 ± 3.26 µM; in assay [4], 9.55 ± 0.09 µM. Also, the “KSV (Stern-Volmer constant)” value in the assay with CT-DNA is 475 M⁻¹.

Take `CCOP(=O)(OCC)C(NC(=O)CCOc1ccc2c(C)cc(=O)oc2c1)c1ccc(Br)cc1` (stereo not drawn) [Compound 8g, Diethyl(3-(4-methyl-2-oxo-2H-chromen-7-yloxy)propanamido)(4-bromophenyl)methylphosph-onate]: the IC50 in assay [1] was greater than 100 µM; in assay [2] it was 88.5 ± 4.62 µM; in assay [3], 85.6 ± 2.83 µM; in assay [4], 7.27 ± 6.18 µM. Also, the “KSV (Stern-Volmer constant)” value in the assay on CT-DNA worked out at 410 M⁻¹.

In the case of `CCOP(=O)(OCC)C(NC(=O)CCOc1ccc2c(C)cc(=O)oc2c1)c1ccc2ccccc2c1` (stereo not drawn) [Compound 8i, Diethyl(3-(4-methyl-2-oxo-2H-chromen-7-yloxy)propanamido)(naphthalen-2-yl)methylphosph-onate], the IC50 in assay [1] was greater than 100 µM; in assay [2], 38.9 ± 0.04 µM; in assay [3], 41.5 ± 2.86 µM. Besides, the “KSV (Stern-Volmer constant)” value in the assay with CT-DNA turned out to be 18100 M⁻¹.
